Patent US8735406B2, “8-oxodihydropurine derivative” (Dainippon Sumitomo Pharma Co., Ltd., priority 2009, dated 2014)
Read-outs that look alike come from different tables or passages of the source.

Molecular target: T1, FAAH (Rattus norvegicus, UniProt P97612)
T1 construct: Preparation of Rat Brain Membranes Preparations (FAAH Enzyme Solution); from tissue; host or cells: rat cerebrum (brain membrane preparation)
T1 sequence (P97612 1-579): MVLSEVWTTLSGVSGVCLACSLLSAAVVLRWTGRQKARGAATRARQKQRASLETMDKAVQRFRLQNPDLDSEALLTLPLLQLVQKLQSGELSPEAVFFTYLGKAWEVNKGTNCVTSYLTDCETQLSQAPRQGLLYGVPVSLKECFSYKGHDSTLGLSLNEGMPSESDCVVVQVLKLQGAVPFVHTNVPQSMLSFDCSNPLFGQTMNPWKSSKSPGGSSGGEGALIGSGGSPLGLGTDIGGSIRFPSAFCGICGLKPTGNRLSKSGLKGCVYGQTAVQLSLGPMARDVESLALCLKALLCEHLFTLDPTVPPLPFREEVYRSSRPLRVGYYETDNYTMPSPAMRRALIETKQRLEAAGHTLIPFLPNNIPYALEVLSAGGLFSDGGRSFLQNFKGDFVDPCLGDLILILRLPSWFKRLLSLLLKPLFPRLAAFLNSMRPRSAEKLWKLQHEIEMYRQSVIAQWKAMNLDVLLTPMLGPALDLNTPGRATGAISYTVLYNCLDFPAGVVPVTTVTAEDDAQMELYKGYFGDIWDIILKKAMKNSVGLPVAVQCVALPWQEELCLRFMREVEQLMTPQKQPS
Assay: Determination of FAAH inhibitory activity in rat (rat brain membrane preparations, [3H]-anandamide hydrolysis)
Assay type: biochemical
Summary of the method: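 Compounds tested from 0.1 nM to 1 μM to derive IC50 against FAAH hydrolysis in rat brain membrane preparations (100 μg/mL). A 10-min 37 °C preincubation was followed by 10 min with [3H]-anandamide (2 nM) mixed with 2 μM unlabelled anandamide. Radioactive ethanolamine was extracted into the water/methanol layer and counted.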

[1] = rat brain membrane preparations, 100 nM test substance, read-out: FAAH Inhibition, Inhibition Rate at 100 nM
[2] = rat brain membrane preparations, test substance 0.1 nM to 1 μM, read-out: FAAH Inhibition IC50
[3] = at 100 nM, rat brain membrane preparations, read-out: FAAH Inhibition Inhibition Rate at 100 nM
[4] = rat brain membrane preparations, read-out: FAAH Inhibition IC50

Structure (SMILES)	inhibition at 0.1 µM [1] [%]	IC50 [2] [nM]	also measured
COc1cccc(-c2ncc3c(n2)n(C)c(=O)n3C(=O)N(C)CCc2cccc(Cl)c2)c1 [Example 76, N-[2-(3-Chlorophenyl)ethyl]-2-(3-methoxyphenyl)-N,9-dimethyl-8-oxo-8,9-dihydro-7H-purine-7-carboxamide]			IC50 (FAAH Inhibition IC50, rat brain membrane preparations, test substance 0.1 nM to 1 μM): 3 nM; inhibition at 0.1 µM (read-out: FAAH Inhibition, Inhibition Rate at 100 nM): 102%
COc1cccc(Cc2ncc3c(n2)n(C)c(=O)n3C(=O)N2CCCC2)c1 [Example 261, 2-(3-Methoxybenzyl)-9-methyl-7-(pyrrolidin-1-ylcarbonyl)-7,9-dihydro-8H-purine-8-one]	100	16	
COc1cccc(-c2ncc3c(n2)n(C)c(=O)n3C(=O)N(C)Cc2cccc(C(F)(F)F)c2)c1 [Example 82, 2-(3-Methoxyphenyl)-N,9-dimethyl-8-oxo-N-[3-(trifluoromethyl)benzyl]-8,9-dihydro-7H-purine-7-carboxamide]	90	36	
CN(C)C(=O)n1c(=O)n(C)c2cnc(CCc3ccc(F)cc3)nc21 [Example 533, 2-[2-(4-Fluorophenyl)ethyl]-N,N,7-trimethyl-8-oxo-7,8-dihydro-9H-purine-9-carboxamide]	53	99	
COc1cccc(-c2ncc3c(n2)n(C)c(=O)n3C(=O)N2CCN(c3cccc(F)c3)CC2)c1 [Example 137, 7-{[4-(3-Fluorophenyl)piperazin-1-yl]carbonyl}-2-(3-methoxyphenyl)-9-methyl-7,9-dihydro-8H-purine-8-one]	98	5	
CC(=O)c1ccc(N2CCN(C(=O)n3c(=O)n(C)c4nc(-c5ccccc5)ncc43)CC2)cc1 [Example 133, 7-{[4-(4-Acetylphenyl)piperazin-1-yl]carbonyl}-9-methyl-2-phenyl-7,9-dihydro-8H-purine-8-one]	100	6	
COc1cccc(-c2ncc3c(n2)n(C)c(=O)n3C(=O)N2CCC(CCc3ccc(F)cc3)CC2)c1 [Example 96, 7-({4-[2-(4-Fluorophenyl)ethyl]piperidin-1-yl}carbonyl)-2-(3-methoxyphenyl)-9-methyl-7,9-dihydro-8H-purine 8-one]	100	6	
CCN(C)C(=O)n1c(=O)n(C)c2cnc(CCc3ccc(F)cc3)nc21 [compound 555]	48	106	
COc1ccc(-c2ncc3c(n2)n(C(=O)N2CCCC2)c(=O)n3C)cn1 [Example 250, 2-(6-Methoxypyridin-3-yl)-7-methyl-9-(pyrrolidin-1-ylcarbonyl)-7,9-dihydro-8H-purine-8-one]	78	63	
CC(C)c1ncc2c(n1)n(C)c(=O)n2C(=O)N1CCCC1 [Example 275]	73	64	
CCCOCc1ncc2c(n1)n(C)c(=O)n2C(=O)N1CC(c2ccccc2)C1 [compound 467]	69	52	
CN(C)C(=O)n1c(=O)n(C)c2cnc(CCc3cc(F)cc(F)c3)nc21 [Example 497, 2-[2-(3,5-Difluorophenyl)ethyl]-N,N,7-trimethyl-8-oxo-7,8-dihydro-9H-purine-9-carboxamide]		25	FAAH Inhibition, Inhibition Rate at 100 nM (rat brain membrane preparations, 100 nM test substance, 0.1 µM): 94%
COCCOCc1ncc2c(n1)n(C)c(=O)n2C(=O)N1CC(c2cccc(F)c2)C1 [compound 473]	113	8	
CN(C)C(=O)n1c(=O)n(C)c2cnc(Cc3ccccc3Cl)nc21 [compound 652]			inhibition at 0.1 µM [3]: 60%; IC50 [4]: 31 nM
COc1cccc(-c2ncc3c(n2)n(C)c(=O)n3C(=O)N2CCN(C3CCCCC3)CC2)c1 [Example 97, 7-[(4-Cyclohexylpiperazin-1-yl)carbonyl]-2-(3-methoxyphenyl)-9-methyl-7,9-dihydro-8H-purine-8-one]	99	37	
COc1cccc(-c2ncc3c(n2)n(C)c(=O)n3C(=O)N2CC[C@@H](OC)C2)c1 [Example 47]	16	> 100	
Cn1c(=O)n(C(=O)N2CCC2)c2nc(CCc3ccc(C4CC4)cc3)ncc21 [compound 573]	99	16	
CCN(C)C(=O)n1c(=O)n(C)c2cnc(CCc3cccc(OC)c3)nc21 [compound 557]	66	67	
CCOCc1ncc2c(n1)n(C)c(=O)n2C(=O)N1CC(c2ccc(F)cc2)C1 [compound 461]	107	10	
Cc1ccc(Cc2ncc3c(n2)n(C)c(=O)n3C(=O)N2CCCC2)cc1 [compound 259]	95	41	
CCN(C)C(=O)n1c(=O)n(C)c2nc(Cc3ccc(C(F)(F)F)cc3)ncc21 [compound 283]	59	74	

Structure (SMILES)	inhibition at 0.1 µM [1] [%]	IC50 [2] [nM]	also measured
COc1cccc(Cc2ncc3c(n2)n(C(=O)N2CCCC2)c(=O)n3C)c1 [Example 288, 2-(3-Methoxybenzyl)-7-methyl-9-(pyrrolidin-1-ylcarbonyl)-7,9-dihydro-8H-purine-8-one]	86	47	
COCc1ncc2c(n1)n(C)c(=O)n2C(=O)N1CC[C@@H](Oc2cccc(Cl)c2)C1 [Example 487, 7-{[(3R)-3-(3-Chlorophenoxy)pyrrolidin-1-yl]carbonyl}-2-(methoxymethyl)-9-methyl-7,9-dihydro-8H-purine-8-one]	99	15	
Cn1c(=O)n(C(=O)N2CCCC2)c2cnc(/C=C/c3ccc(F)cc3)nc21 [Example 5, 2-[(E)-2-(4-Fluorophenyl)ethenyl]-9-methyl-7-(pyrrolidin-1-ylcarbonyl)-7,9-dihydro-8H-purine-8-one]	98	15	
CCc1ncc2c(n1)n(C)c(=O)n2C(=O)N1CC(c2ccc(F)cc2)C1 [compound 628]			inhibition at 0.1 µM [3]: 90%; IC50 [4]: 10 nM
CC(C)c1ccc(CCc2ncc3c(n2)n(C(=O)N2CCC2)c(=O)n3C)cc1 [compound 563]	100	7	
Cn1c(=O)n(C(=O)N2CCCC2Cc2ccccc2)c2cnc(-c3ccccc3)nc21 (stereo not shown) [Example 44]		> 100	inhibition at 1 µM (rat brain membrane preparations, 1000 nM test substance (stated in the cell), read-out: FAAH Inhibition, Inhibition Rate (1000 nM)): 30%
Cn1c(=O)n(C(=O)N2CCCC2)c2cnc(CCc3cccc(F)c3)nc21 [compound 13]	91	42	
CCN(C)C(=O)n1c(=O)n(C)c2cnc(CCc3cccc(C)c3)nc21 [compound 556]	78	44	
Cn1c(=O)n(C(=O)N2CC(c3ccc(F)cc3)C2)c2cnc(C3CC3)nc21 [compound 621]			inhibition at 0.1 µM [3]: 78%; IC50 [4]: 10 nM
Cn1c(=O)n(C(=O)N2CC(c3ccccc3)C2)c2cnc(C3CC3)nc21 [compound 623]			inhibition at 0.1 µM [3]: 87%; IC50 [4]: 3 nM
COc1cccc(CCc2ncc3c(n2)n(C(=O)N(C)C)c(=O)n3C)c1 [compound 543]	70	67	
CCN(C)C(=O)n1c(=O)n(C)c2cnc(-c3ccc(OC(F)F)cc3)nc21 [compound 345]	101	9	
CCCN(C)C(=O)n1c(=O)n(C)c2nc(-c3cccc(OC)c3)ncc21 [Example 107, 2-(3-Methoxyphenyl)-N,9-dimethyl-8-oxo-N-propyl-8,9-dihydro-7H-purine-7-carboxamide]	101	7	
CCOc1ccc(-c2ncc3c(n2)n(C(=O)N(C)C)c(=O)n3C)cc1 [compound 320]	45	113	
CN(C)C(=O)n1c(=O)n(C)c2cnc(COc3ccccc3Cl)nc21 [Example 421]	85	95	
Cn1c(=O)n(C(=O)N2CCCC2)c2cnc(Cc3cccc(Cl)c3)nc21 [Example 19, 2-(3-Chlorobenzyl)-9-methyl-7-(pyrrolidin-1-ylcarbonyl)-7,9-dihydro-8H-purine-8-one]	99	9	
CCCc1ncc2c(n1)n(C)c(=O)n2C(=O)N1CC(Oc2ccccc2CC)C1 [Example 629]			inhibition at 0.1 µM [3]: 48%; IC50 [4]: 105 nM
Cn1c(=O)n(C(=O)N2CCCC2)c2nc(CCc3ccccc3)ncc21 [Example 290, 7-Methyl-2-(2-phenylethyl)-9-(pyrrolidin-1-ylcarbonyl)-7,9-dihydro-8H-purine-8-one]	93	47	
CN(C)C(=O)n1c(=O)n(C)c2cnc(CCc3cc(F)c(F)c(F)c3)nc21 [compound 504]	100	6	
Cn1c(=O)n(C(=O)N2CCCC2)c2cnc(-c3cccnc3F)nc21 [compound 209]	103	24	
